The values that follow come from patent US10799598B2, “Disulfide bridging conjugates” (Sorrento Therapeutics, Inc., priority 2017, dated 2020).

For assay [1], the system named is LNCaP (PSMA+) prostate cancer cells. Put plainly: Luminescence cytotoxicity assay, absence of effector cells, LNCaP. To be noted: LNCaP (PSMA present), up to 20 nM, 4 days incubation. Format: cell-based. The protocol:
(§1) Firefly luciferase transduced prostate cancer target cell lines were used for cytotoxicity assays, LNCaP (ATCC® CRL-1740™), PSMA+(cultured in RPMI-1640+10% non-heat-inactivated FBS+0.5 μg/mL Puromycin) and PC-3 (ATCC® CRL-1435™), PSMA-(cultured in RPMI-1640+10% heat-inactivated FBS+1.0 μg/mL Puromycin). Cells were harvested with TrypLE (ThermoFisher Scientific) then resuspended in fresh RPMI-1640+10% heat-inactivated FBS and plated at 4,000 cells/well in 100 μL. After overnight incubation at 37° C. in a humidified 5% CO2 incubator, serial dilutions of proteins in RPMI-1640+10% heat-inactivated medium (50 μL) were added to the assay plates at the indicated concentrations. In experiments utilizing effector cells, freshly thawed peripheral blood mononuclear cells (PBMCs) were washed with media and added to the assay plates at 40,000 cells in 50 μL to obtain an effector:target ratio of 10:1. After 4 days incubation, 90 μL was removed from assay plates and 90 μL ONE Glo Luciferase Assay Reagent (Promega # E6120) was mixed with the samples and incubated at room temperature for 10 min. Samples were transferred to white 96-well flat bottom plates for luminescence measurements using a PerkinElmer EnSpire multimode plate reader. Data was analyzed using GraphPad Prism software.

Assay [2] deals with PC-3 (PSMA-) prostate cancer cells. Put plainly: Luminescence cytotoxicity assay, absence of effector cells, PC-3. Format: cell-based. To be noted: PC-3 (PSMA absent), up to 20 nM, 4 days incubation. As to the method:
as §1

As to `O=C(O)CCC(NC(=O)NC(CCC(=O)O)C(=O)O)C(=O)O` (centres unmarked) [DUPA small molecule, 2-[3-(1,3-dicarboxypropyl)ureido]pentanedioic acid], the “dose-dependent cell killing activity” value in assay [1] and in assay [2] was “No dose-dependent cell killing activity was observed” throughout.
